Patent EP2832347B1, “Method for identifying patchouli odorant materials” (Takasago International Corporation, priority 2013, dated 2015)

What was measured:
[1] = target: T1, OR11A1 (Homo sapiens, UniProt Q9GZK7); test: CRE-luciferase reporter assay in HEKOlf cells transiently transfected with OR11A1; format: cell-based
T1 construct: expressed in transfected cells; host or cells: HEKOlf (HEK293 stably expressing human Galpha-olf and bovine CNGA2)
T1 sequence (Q9GZK7 1-315): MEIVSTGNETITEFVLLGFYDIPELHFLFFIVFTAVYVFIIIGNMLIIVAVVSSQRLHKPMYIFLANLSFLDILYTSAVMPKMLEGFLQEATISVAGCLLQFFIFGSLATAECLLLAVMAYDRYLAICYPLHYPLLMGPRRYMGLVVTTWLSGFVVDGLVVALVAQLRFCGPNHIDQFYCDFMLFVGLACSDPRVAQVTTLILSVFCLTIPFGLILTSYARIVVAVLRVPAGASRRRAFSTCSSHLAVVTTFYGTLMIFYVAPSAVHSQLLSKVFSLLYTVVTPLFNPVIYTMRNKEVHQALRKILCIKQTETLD
Procedure: (§1) The experiments were performed using a HEK293 cell line (deposited at the ATCC under accession n° CRL-1573) stably expressing the Gαolf G-protein and the cyclic nucleotide gated ion channel A2 subunit (CNGA2) (herein called HEKOlf). As described by Shirokova et al., 2005, the human Gαolf cDNA was cloned into the mammalian expression vector pPuro and cDNA for the bovine cyclic nucleotide gated ion channel A2 (CNGA2) subunit was cloned into the mammalian expression vector pcDNA3. Both constructs were transfected using Lipofectamine2000 (Invitrogen) following the manufacturer's instructions. Cellular clones stably expressing Gαolf and CNGA2 were obtained by antibiotic selection with 0.5µg/ml Puromycin and 200µg/ml Geneticin.
All odorants were stored in the dark at 4°C upon delivery. They were prepared at 100mM stock solutions using DMSO as a solvent and stored at -20°C. On the day of the experiment the different stock solutions were directly diluted in the assay buffer (Tyrode's buffer) having the following composition: 5mM KCI, 130mM NaCl, 2mM CaCl2, 5mM NaHCO3, 1mM MgCl2, 20mM HEPES, pH7.4.
(§2) All transient transfections were performed with Lipofectamine 2000 (Invitrogen) according to the manufacturer's protocol. 10µl Lipofectamine 2000 were diluted in 500 µl DMEM and incubated for 5 minutes at room temperature. At the same time, 3µg of plasmid DNA were diluted in 500µl DMEM and added to the Lipofectamine 2000 mix to obtain a final volume of 1000µl. After incubation for a further 30 minutes at room temperature, the DNA-Lipofectamine complex was added to 1000µl of a cell suspension containing 1.600.000 cells/ml. Subsequently, 25µl per well of the complete mixture were seeded in black 384 well polystyrene assay plates. 25µl DMEM containing 20% FBS were added to each well 3 hours post-transfection.
(§3) The cDNAs for all olfactory receptors and an empty control vector were co-transfected with pGL4.29 (Promega). The pGL4.29 vector contains a cyclic adenosine monophosphate (cAMP) response element (CRE) that drives the transcription of the luciferase reporter gene luc2P (Photinus pyralis). luc2P is a synthetically-derived luciferase sequence with humanized codon optimization that is designed for high expression and reduced anomalous transcription.
In this assay, the interaction of an odorant with its cognate olfactory receptor leads to the activation of the human Gαolf G-protein. Gαolf is a stimulatory G-protein (Gαs) and activates adenylate cyclase, which converts adenosine triphosphate (ATP) into cAMP. Therefore, the activity of the transcribed luciferase can be used as an indication of olfactory receptor activation. 24 hours post-transfection the medium was removed from the transfected cells and 30 µl Tyrode's buffer containing the diluted odorants were added and incubated for 6 hours at 37°C. The cells were then transferred into an automated fluorometric imaging plate reader (FLIPR^TETRA, Molecular Devices). Subsequently, 25µl of a mixture composed of Triton X-100 and luciferin (1:1) were added. The addition of this mixture led to cell lyses and allowed interaction of the luciferase with its substrate luciferin resulting in a detectable emission of light.
The data obtained from different well replicates were analyzed with Excel, ScreenWorks, and SigmaPlot 10. The responses of each receptor to the odorants were divided by the mean responses of the receptor towards Tyrode's buffer (fold of change FOC1). The specificity of FOC1 was checked by comparing with a second FOC (FOC2) obtained by stimulating a control sample, consisting in an empty expression vector, with the same odorants and Tyrode's buffer. The mean and standard deviation of the resulting fold of change values were calculated and plotted in vertical bar charts or concentration-response curves fitted by the SigmaPlot 10 software.

[2] = tested on: seven other OR11A1-related olfactory receptors; test: CRE-luciferase reporter assay on OR11A1 related receptors; format: cell-based, human; details: 10/30/100 µM
Procedure: as §1, §2, §3
In this assay, the interaction of an odorant with its cognate olfactory receptor leads to the activation of the human Gαolf G-protein. Gαolf is a stimulatory G-protein (Gαs) and activates adenylate cyclase, which converts adenosine triphosphate (ATP) into cAMP. Therefore, the activity of the transcribed luciferase can be used as an indication of olfactory receptor activation. […] The cells were then transferred into an automated fluorometric imaging plate reader (FLIPR^TETRA, Molecular Devices). […]
The data obtained from different well replicates were analyzed with Excel, ScreenWorks, and SigmaPlot 10. […] The mean and standard deviation of the resulting fold of change values were calculated and plotted in vertical bar charts or concentration-response curves fitted by the SigmaPlot 10 software. […]

C[C@H]1CC[C@@]2(O)C(C)(C)[C@@H]3CC[C@@]2(C)[C@H]1C3 [Patchouli alcohol]
activation of OR11A1 ([1]; Example 3, 10/30/100 µM): strongly activated | EC50 ([1]; Example 4, Table 5, 0.03-100 µM tested): 12.1 ± 1.7 µM | Potency and efficacy on OR11A1 (comparison between odorants) ([1]; Example 4, 0.1 to 100 µM (Figure 6)): comparable | activation of OR11A1 ([1]; Example 4, 3, 10 and 30 µM (Figure 5)): activated | fold of change ([2]; Example 3, figure 4): around 1 | response of seven other OR11A1-related olfactory receptors ([2]; Example 3): none of the seven other OR11A1-related olfactory receptors responded
